The numbers were not newly measured in US20230381267A1, “OXYTOCIN TREATMENT FOR HYPERMOBILE EHLERS-DANLOS SYNDROME” (Baylor College of Medicine, priority 2020, published 2023), which cites them from elsewhere.

For data set [1] the following is noted: IV administration, irritable bowel syndrome.
For data set [2] the following is noted: intranasal, individuals with tension-type headache and migraine.
For data set [3] the following is noted: humans, preliminary research.

Turning to `CC[C@H](C)[C@@H]1NC(=O)[C@H](Cc2ccc(O)cc2)NC(=O)[C@@H](N)CSSC[C@@H](C(=O)N2CCC[C@H]2C(=O)N[C@@H](CC(C)C)C(=O)NCC(N)=O)NC(=O)[C@H](CC(N)=O)NC(=O)[C@H](CCC(N)=O)NC1=O` [oxytocin], in data set [1], the “effect on pain tolerance” value is reported as “significant effect”. Besides, the headache relief entry in data set [2] is “relieve headache in a dose-dependent manner”. For the same molecule, in data set [3], the pain sensitivity result is listed as “decreases pain sensitivity”. Besides, the “average effect (Cohen d)” value (across central and peripheral modes of administration and type of noxious stimulus (heat, electric)) is reported as 2.28. Further, under “after exogenous administration”, the “duration of analgesic effects” value is “approximately 1 hour” and the “time at which analgesic effects were strongest” value is 20 to 30 min. The “animal studies in which oxytocin increased pain tolerance” value (systematic review Rash, AguirreCamacho and Campbell 2014) was 29 of 33.
